The test system of test [1] is IL-17A in Human peripheral mononuclear cells. Kind of test: Human PBMC IL-17A assay. Type of test: cell-based. The conditions noted are these: 72 h, EC50, antiCD3/antiCD28-coated beads, 3 days, alpha-LISA. On the procedure: This assay measures the IL-17A inhibitory potential of test compounds in Human peripheral mononuclear cells.
Peripheral blood mononuclear cells (PBMC) were isolated from human buffy coats using density grade centrifugation (Lymphoprep, Medinor), washed twice in PBS and frozen at −150° C. for later use.
Test compounds were diluted in DMSO and 70 nL of titrated test and reference compounds were transferred by the Echo liquid handling system to a 384-well assay plate in to give a final concentration of 0.1% DMSO in the wells.
The PBMC were thawed, washed and suspended in RPMI-1640 supplemented with pen/strep, glutamax and 10% bovine calf serum. The cells were mixed with antiCD3/antiCD28-coated beads (1 cells pr one bead) (Milteney T-cell expansion kit), and immediately thereafter the cells were pipetted to the plate at 130,000c/well. The plate was incubated for 3 days in humidified air/CO2 (95%/5%) On day 3 the level of IL-17A in the culture supernatant is measured using alpha-LISA kit (Perkin Elmer). Cell viability was measured by adding 6 uL pr well Prestoblue© (Life Technologies) and incubating for 2 hours followed by fluorescent measurement (Ex535/Em615). EC50 values were calculated using a 4-parameter non-linear regression curve-fitting model. Donors may be pre-screened in order to select PBMC with a high secretion of IL-17A.
A general note: Alpha assays give light when donor and acceptor beads are brought close together.

The subject of test [2] is IL-17A levels in human peripheral blood. Kind of test: tissue or blood. Type of test: cell-based. The conditions noted are these: 72 h, read-out: Human Whole blood IL-17A (nM).
The target of test [3] is T1, human RORgt nuclear receptor (RORgT ligand binding domain protein) (Homo sapiens, UniProt P51449).
T1 construct: purchased Proteros Biostructures GmbH
T1 sequence (P51449 with tags, fused parts or gaps): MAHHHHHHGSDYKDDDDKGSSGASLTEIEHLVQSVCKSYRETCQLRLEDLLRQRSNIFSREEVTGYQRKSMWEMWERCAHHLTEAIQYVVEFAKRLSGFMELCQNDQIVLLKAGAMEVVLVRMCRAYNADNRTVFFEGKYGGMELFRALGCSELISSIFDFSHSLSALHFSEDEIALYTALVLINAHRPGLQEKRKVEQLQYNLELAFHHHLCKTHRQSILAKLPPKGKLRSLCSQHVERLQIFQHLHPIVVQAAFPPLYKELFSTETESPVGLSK
Kind of test: ROR-gamma binding assay (Scintillation Proximity Assay, displacement of [3H]-25-hydroxycholesterol). To be noted: EC50, SPA, 15 nM [3H]-25-Hydroxycholesterol, RORgT LBD 12 nM. The method, then: This assay is used to evaluate the binding affinity of compounds to the ligand-binding pocket of the human RORgt nuclear receptor based on displacement of a radio-ligand. The EC50 values are calculated using a four parameter fit. Compounds binding with high affinity to RORgt will have low EC50 values.
The assay is a Scintillation Proximity Assay (SPA) that involves competition between an unlabeled test compound and tritium-labeled 25-hydroxycholesterol for binding to RORgT ligand binding domain (LBD) protein immobilized on the surface of SPA beads. These beads contain a scintillant that emits light if excited by a radioactive particle, and this light is detected using a scintillation counter. In this assay, tritium-labelled 25-hydroxycholesterol is used as radiotracer.
400 nL of titrated test and reference compounds in DMSO were transferred by the Echo liquid handling system to a 384-well assay plate followed by addition of 5 μL [3H]-25-Hydroxycholesterol (Perkin Elmer) and 35 μL diluted RORgT LBD protein with the following amino acid sequence (HIS-FLG-tag): MAHHHHHHGSDYKDDDDKGSSGASLTEIEHLVQSVCKSYRETCQLRLEDLLRQRSNIFSREEVTGYQRKSMWEMWERCAHHLTEAIQYVVEFAKRLSGFMELCQNDQIVLLKAGAMEVVLVRMCRAYNADNRTVFFEGKYGGMELFRALGCSELISSIFDFSHSLSALHFSEDEIALYTALVLINAHRPGLQEKRKVEQLQYNLELAFHHHLCKTHRQSILAKLPPKGKLRSLCSQHVERLQIFQHLHPIVVQAAFPPLYKELFSTETESPVGLSK (SEQ ID NO: 1) (Purchased from Proteros Biostructures GmbH). After 30 min of preincubation, 40 μL of HIS-TAG PVT SPA beads (Perkin Elmer) were added. The plates were then incubated for minimum 4 hours at room temperature in darkness before measuring the SPA signal using a MicroBeta plate scintillation counter. Final assay conditions were: 50 mM HEPES pH 7.4, 150 mM NaCl, 5 mM MgCl2, 0.1% BSA, 4 μg/well HIS-TAG PVT SPA Beads, 30 ng/well RORgT LBD (equal to a final concentration of 12 nM), 15 nM [^3H]-25-Hydroxycholesterol, 0.5% DMSO and varying concentrations of test compound in a total volume of 80 μL/well. EC50 values were calculated using a 4-parameter non-linear regression curve-fitting model.
(In a scintillation proximity assay essentially only radioactivity close to the scintillant gives light.)

Here are results for 9 compounds from patent publication US10934282B2, “Heteroaromatic modulators of the retinoid-related orphan receptor gamma” (LEO PHARMA A/S, priority 2016, dated 2021).

Each structure is given as a SMILES string.

For `COCc1nnc(Nc2cc(Cl)cc(CN3CCN(C(=O)C4CCC4)[C@@H](C)C3)c2C)o1` [Example 12, [(2S)-4-[[5-chloro-3-[[5-(methoxymethyl)-1,3,4-oxadiazol-2-yl]amino]-2-methyl-phenyl]methyl]-2-methyl-piperazin-1-yl]-cyclobutyl-methanone], the EC50 in test [1] turned out to be 128 nM; in test [2] it was 302 nM; in test [3], 40.4 nM.

`COCc1nnc(Nc2cc(Cl)cc(CN3CCN(C(=O)C4CCCC4)[C@@H](C)C3)c2C)o1` [Example 13, [(2S)-4-[[5-chloro-3-[[5-(methoxymethyl)-1,3,4-oxadiazol-2-yl]amino]-2-methyl-phenyl]methyl]-2-methyl-piperazin-1-yl]-cyclopentyl-methanone]: the EC50 in test [1] amounted to 48.9 nM; in test [2], 112 nM; in test [3], 14.7 nM.

Regarding `Cc1cc(CN2CCN(C(=O)C3CCC3)[C@@H](C)C2)c(C)c(Nc2nnc(C)o2)c1` [Example 14, cyclobutyl-[(2S)-4-[[2,5-dimethyl-3-[(5-methyl-1,3,4-oxadiazol-2-yl)amino]phenyl]methyl]-2-methyl-piperazin-1-yl]methanone], the values for the EC50 in test [1], in test [2] and in test [3] were 185 nM, 372 nM and 61.1 nM, respectively.

Take `Cc1cc(CN2CCN(C(=O)C3CCC3)[C@@H](C)C2)c(C)c(Nc2nnc(CC#N)o2)c1` [Example 15, 2-[5-[3-[[(3S)-4-(cyclobutanecarbonyl)-3-methyl-piperazin-1-yl]methyl]-2,5-dimethyl-anilino]-1,3,4-oxadiazol-2-yl]acetonitrile]: the results for the EC50 in test [1], in test [2] and in test [3] were 101 nM, 421 nM and 63.8 nM, respectively.

For `Cc1cc(CN2CCN(C(=O)C3CC3)[C@@H](C)C2)c(C)c(Nc2nnc(CC#N)o2)c1` [Example 16, 2-[5-[3-[[(3S)-4-(cyclopropanecarbonyl)-3-methyl-piperazin-1-yl]methyl]-2,5-dimethyl-anilino]-1,3,4-oxadiazol-2-yl]acetonitrile], the EC50 in test [1] was determined as 237 nM; in test [2] it was 206 nM; in test [3], 223 nM.

For the compound `Cc1cc(CN2CCN(C(=O)C3CCC(F)(F)C3)[C@@H](C)C2)c(C)c(Nc2nnc(CC#N)o2)c1` (stereo partly drawn) [Example 17, 2-[5-[3-[[(3S)-4-(3,3-difluorocyclopentanecarbonyl)-3-methyl-piperazin-1-yl]methyl]-2,5-dimethyl-anilino]-1,3,4-oxadiazol-2-yl]acetonitrile], the EC50 in test [1] is 230 nM; in test [2] it was 131 nM; in test [3], 54.5 nM.

Turning to `Cc1c(CN2CCN(C(=O)C3CCCC3)[C@@H](C)C2)cc(Cl)cc1Nc1nnc(CC#N)o1` [Example 18, 2-[5-[5-chloro-3-[[4-(cyclopentanecarbonyl)-3-methyl-piperazin-1-yl]methyl]-2-methyl-anilino]-1,3,4-oxadiazol-2-yl]acetonitrile], the EC50 in test [1] was determined as 69.8 nM; in test [2], 203 nM; in test [3], 21.2 nM.

For the compound `Cc1cc(CN2CCN(C(=O)C3CCC3)[C@@H](C)C2)c(C)c(Nc2nnc([C@@H](C)O)o2)c1` [Example 19, cyclobutyl-[(2S)-4-[[3-[[5-[(1R)-1-hydroxyethyl]-1,3,4-oxadiazol-2-yl]amino]-2,5-dimethyl-phenyl]methyl]-2-methyl-piperazin-1-yl]methanone], the EC50 in test [1] was 117 nM; in test [2] it was 216 nM; in test [3] it was 92.3 nM.

Turning to `Cc1cc(CN2CCN(C(=O)C3CCC3)[C@@H](C)C2)c(C)c(Nc2nnc([C@H](C)O)o2)c1` [Example 20, cyclobutyl-[(2S)-4-[[3-[[5-[(1S)-1-hydroxyethyl]-1,3,4-oxadiazol-2-yl]amino]-2,5-dimethyl-phenyl]methyl]-2-methyl-piperazin-1-yl]methanone], the EC50 in test [1] came out at 189 nM; in test [2], 259 nM; in test [3], 113 nM.
